Patent US12258328B2, “6-membered heteroaryl-containing aminopyridine compounds as EGFR inhibitors” (YUHAN CORPORATION, priority 2021, dated 2025)
Like-named read-outs stand apart in the source and are kept apart here.

Columns and labels:
[1] = target: EGFR del19/T790M/C797S (Homo sapiens, UniProt P00533, C797S/DEL746-750/T790M); assay: Biochemical EGFR kinase assay (Lance Ultra TR-FRET), triple mutant del19/T790M/C797S
How it was run: (§1)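 Enzyme reactions lasted 1 hour at room temperature with test compounds between 0.003 and 10 μM, followed by 10 mM EDTA quench.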

[2] = target: EGFR L858R/T790M/C797S (Homo sapiens, UniProt P00533, C797S/L858R/T790M); assay: Biochemical EGFR kinase assay (Lance Ultra TR-FRET), triple mutant L858R/T790M/C797S
How it was run: as §1

[3] = target: EGFR del19/C797S (Homo sapiens, UniProt P00533, C797S/DEL746-750); assay: Biochemical EGFR kinase assay (Lance Ultra TR-FRET), double mutant del19/C797S
How it was run: as §1

[4] = target: EGFR L858R/C797S (Homo sapiens, UniProt P00533, C797S/L858R); assay: Biochemical EGFR kinase assay (Lance Ultra TR-FRET), double mutant L858R/C797S
How it was run: as §1

[5] = target: EGFR wildtype (Homo sapiens, UniProt P00533); assay: Biochemical EGFR kinase assay (Lance Ultra TR-FRET), wildtype
How it was run: as §1

[6] = ATP at Km, read-out: IC50 del19/T790M/C797S, Km ATP
[7] = IC50 del19/T790M/C797S, 100 μM ATP
[8] = ATP at Km, read-out: IC50 L858R/T790M/C797S, Km ATP
[9] = IC50 L858R/T790M/C797S, 100 μM ATP
[10] = ATP at Km, read-out: IC50 del19/C797S, Km ATP
[11] = ATP at Km, read-out: IC50 L858R/C797S, Km ATP
[12] = ATP at Km, read-out: IC50 WT, Km ATP

Sequence of EGFR L858R/T790M/C797S (P00533 25-1210 T790M/C797S/L858R): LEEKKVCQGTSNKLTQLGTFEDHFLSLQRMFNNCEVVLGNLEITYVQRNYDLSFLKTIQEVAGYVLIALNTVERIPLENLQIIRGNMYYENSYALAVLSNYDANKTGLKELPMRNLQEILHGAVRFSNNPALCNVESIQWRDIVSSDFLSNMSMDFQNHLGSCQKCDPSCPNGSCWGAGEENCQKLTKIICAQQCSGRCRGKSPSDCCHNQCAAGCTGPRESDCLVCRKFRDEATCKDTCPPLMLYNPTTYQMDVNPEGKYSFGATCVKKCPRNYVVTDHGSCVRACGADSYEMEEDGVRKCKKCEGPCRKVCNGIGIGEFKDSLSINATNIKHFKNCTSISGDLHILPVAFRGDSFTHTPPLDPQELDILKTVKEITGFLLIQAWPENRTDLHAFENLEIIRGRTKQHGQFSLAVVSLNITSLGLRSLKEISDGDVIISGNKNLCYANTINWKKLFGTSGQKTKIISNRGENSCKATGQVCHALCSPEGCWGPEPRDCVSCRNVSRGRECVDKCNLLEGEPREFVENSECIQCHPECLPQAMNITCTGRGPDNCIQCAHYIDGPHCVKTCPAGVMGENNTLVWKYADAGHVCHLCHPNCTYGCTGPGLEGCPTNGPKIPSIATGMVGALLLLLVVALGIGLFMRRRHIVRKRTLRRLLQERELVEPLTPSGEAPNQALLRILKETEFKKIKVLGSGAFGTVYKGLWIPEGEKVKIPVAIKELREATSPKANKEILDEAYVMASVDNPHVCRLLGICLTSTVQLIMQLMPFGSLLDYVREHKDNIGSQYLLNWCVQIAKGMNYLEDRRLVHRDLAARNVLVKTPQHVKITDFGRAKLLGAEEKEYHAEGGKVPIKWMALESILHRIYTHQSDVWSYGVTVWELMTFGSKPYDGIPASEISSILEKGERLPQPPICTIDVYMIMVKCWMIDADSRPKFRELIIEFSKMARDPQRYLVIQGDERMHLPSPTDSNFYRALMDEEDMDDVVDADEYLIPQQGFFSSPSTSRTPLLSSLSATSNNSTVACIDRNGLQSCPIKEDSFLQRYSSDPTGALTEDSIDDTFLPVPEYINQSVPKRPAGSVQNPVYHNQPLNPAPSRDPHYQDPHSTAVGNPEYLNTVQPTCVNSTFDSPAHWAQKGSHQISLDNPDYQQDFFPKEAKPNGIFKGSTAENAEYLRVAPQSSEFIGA
Sequence of EGFR del19/T790M/C797S (P00533 with tags, fused parts or gaps DEL746-750/T790M/C797S): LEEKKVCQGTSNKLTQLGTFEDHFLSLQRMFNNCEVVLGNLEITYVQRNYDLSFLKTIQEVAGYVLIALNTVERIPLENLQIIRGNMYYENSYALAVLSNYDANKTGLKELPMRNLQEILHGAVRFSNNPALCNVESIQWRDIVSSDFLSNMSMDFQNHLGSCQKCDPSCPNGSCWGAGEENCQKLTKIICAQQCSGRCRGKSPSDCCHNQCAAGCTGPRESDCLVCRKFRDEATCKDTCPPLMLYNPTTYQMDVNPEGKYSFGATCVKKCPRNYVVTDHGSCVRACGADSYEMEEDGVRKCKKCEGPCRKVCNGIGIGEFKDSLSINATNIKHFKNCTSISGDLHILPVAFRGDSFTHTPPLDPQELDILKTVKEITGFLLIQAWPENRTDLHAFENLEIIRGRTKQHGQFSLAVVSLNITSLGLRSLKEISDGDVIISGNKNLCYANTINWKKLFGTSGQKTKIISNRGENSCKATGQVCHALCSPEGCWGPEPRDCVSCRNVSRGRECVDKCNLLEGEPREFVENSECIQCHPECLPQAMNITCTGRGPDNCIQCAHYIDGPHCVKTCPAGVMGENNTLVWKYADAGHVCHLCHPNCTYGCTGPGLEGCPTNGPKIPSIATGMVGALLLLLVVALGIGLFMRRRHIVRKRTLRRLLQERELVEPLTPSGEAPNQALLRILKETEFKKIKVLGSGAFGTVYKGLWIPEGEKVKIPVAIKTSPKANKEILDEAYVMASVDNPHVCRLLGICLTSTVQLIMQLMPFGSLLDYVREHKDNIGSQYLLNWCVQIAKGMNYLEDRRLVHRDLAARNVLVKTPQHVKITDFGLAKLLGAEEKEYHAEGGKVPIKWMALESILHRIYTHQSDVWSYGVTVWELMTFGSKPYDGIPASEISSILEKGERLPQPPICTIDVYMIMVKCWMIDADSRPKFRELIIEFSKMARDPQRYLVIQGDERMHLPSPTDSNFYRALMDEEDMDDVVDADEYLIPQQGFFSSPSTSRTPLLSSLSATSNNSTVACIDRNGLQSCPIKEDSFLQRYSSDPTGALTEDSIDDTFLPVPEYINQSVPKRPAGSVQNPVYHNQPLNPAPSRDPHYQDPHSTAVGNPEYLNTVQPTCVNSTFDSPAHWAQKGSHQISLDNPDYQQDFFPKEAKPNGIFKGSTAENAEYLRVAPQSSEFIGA
Sequence of EGFR wildtype (P00533 25-1210): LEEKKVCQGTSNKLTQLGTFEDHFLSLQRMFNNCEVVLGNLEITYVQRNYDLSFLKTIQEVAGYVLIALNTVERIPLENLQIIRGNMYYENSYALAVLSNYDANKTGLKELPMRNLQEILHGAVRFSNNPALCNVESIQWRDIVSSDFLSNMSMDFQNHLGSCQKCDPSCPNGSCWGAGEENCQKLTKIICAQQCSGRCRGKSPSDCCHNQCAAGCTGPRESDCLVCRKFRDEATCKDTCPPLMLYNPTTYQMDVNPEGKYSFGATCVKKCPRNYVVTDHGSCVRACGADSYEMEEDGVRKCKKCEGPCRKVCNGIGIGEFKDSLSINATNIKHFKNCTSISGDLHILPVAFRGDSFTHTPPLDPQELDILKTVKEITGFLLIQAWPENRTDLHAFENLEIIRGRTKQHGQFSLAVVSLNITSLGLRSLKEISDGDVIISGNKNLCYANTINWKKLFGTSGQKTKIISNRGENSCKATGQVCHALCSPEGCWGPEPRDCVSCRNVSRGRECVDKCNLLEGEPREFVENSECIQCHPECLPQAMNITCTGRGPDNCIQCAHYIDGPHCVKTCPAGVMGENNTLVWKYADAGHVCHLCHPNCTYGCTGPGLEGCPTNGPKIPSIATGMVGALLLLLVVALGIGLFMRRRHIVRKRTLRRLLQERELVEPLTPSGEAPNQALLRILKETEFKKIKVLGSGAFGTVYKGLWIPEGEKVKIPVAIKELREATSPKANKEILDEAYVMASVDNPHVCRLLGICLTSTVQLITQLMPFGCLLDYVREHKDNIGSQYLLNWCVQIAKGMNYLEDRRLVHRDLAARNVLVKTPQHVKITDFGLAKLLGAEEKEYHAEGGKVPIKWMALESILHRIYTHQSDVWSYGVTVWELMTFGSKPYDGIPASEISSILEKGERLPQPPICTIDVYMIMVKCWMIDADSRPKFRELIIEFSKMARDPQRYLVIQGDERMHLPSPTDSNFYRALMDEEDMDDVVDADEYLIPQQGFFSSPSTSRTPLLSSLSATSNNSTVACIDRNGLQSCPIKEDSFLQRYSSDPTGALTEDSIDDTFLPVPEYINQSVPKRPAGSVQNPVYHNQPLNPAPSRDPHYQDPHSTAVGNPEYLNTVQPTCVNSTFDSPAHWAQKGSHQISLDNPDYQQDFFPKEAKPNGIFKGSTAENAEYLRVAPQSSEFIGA
Sequence of EGFR del19/C797S (P00533 with tags, fused parts or gaps DEL746-750/C797S): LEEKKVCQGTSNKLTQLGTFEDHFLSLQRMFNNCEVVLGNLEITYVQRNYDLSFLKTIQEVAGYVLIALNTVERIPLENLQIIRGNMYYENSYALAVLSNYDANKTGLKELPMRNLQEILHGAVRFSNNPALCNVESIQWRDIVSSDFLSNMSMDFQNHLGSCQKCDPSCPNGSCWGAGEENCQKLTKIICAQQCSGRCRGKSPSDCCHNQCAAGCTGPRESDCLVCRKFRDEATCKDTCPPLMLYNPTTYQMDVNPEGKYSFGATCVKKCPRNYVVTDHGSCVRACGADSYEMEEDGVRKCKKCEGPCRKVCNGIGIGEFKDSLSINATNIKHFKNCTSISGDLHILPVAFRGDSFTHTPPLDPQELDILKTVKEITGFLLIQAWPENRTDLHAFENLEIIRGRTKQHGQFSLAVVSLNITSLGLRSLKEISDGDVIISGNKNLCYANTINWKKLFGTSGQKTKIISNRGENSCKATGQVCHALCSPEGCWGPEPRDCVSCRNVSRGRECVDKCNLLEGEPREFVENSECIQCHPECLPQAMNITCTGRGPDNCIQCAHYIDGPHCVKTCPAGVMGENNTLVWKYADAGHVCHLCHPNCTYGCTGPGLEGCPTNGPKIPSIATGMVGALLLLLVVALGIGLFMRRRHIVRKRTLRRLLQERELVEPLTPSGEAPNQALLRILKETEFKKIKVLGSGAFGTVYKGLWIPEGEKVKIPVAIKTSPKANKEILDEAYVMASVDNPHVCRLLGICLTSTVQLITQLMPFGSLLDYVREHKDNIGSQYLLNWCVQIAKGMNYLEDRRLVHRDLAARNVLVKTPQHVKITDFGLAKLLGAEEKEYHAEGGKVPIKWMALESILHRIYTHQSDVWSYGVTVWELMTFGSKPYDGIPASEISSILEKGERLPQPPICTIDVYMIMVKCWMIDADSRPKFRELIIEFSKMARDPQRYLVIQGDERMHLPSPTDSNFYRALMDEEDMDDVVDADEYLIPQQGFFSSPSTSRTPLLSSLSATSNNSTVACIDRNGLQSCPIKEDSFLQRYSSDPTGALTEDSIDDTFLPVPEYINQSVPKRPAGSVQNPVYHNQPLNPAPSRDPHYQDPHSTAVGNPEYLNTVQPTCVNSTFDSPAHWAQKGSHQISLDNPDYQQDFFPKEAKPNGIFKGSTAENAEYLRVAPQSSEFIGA

SMILES | IC50 [1, 6] [nM] | IC50 [1, 7] [nM] | IC50 [2, 8] [nM] | IC50 [2, 9] [nM] | IC50 [3, 10] [nM] | IC50 ([3]; IC50 del19/C797S, 100 μM ATP) [nM] | IC50 [4, 11] [nM] | IC50 ([4]; IC50 L858R/C797S, 100 μM ATP) [nM] | IC50 [5, 12] [nM] | IC50 ([5]; IC50 WT, 100 μM ATP) [nM]
CC(C)(F)c1ccc(-c2cnc(Nc3ccnc(-c4cnn(S(=O)(=O)C5CC5)c4)n3)cc2N[C@H]2CC[C@@H](C(C)(C)O)CC2)nc1 [Example 236, 2-((1s,4s)-4-((6′-((2-(1-(Cyclopropylsulfonyl)-1H-pyrazol-4-yl)pyrimidin-4-yl)amino)-5-(2-fluoropropan-2-yl)-[2,3′-bipyridin]-4′-yl)amino)cyclohexyl)propan-2-ol] | 2.5 | 9.1 | 1.9 | 6.4 | 9.1 | 24.4 | 3 | 177 | 41.8 | > 10000
CC(C)(F)c1ccc(-c2cnc(Nc3ccnc(-c4cnn(S(=O)(=O)C5CC5)c4)n3)cc2N[C@H]2CC[C@@H](F)CC2)nc1 [Example 238, N^6′-(2-(1-(Cyclopropylsulfonyl)-1H-pyrazol-4-yl)pyrimidin-4-yl)-N^4′-((1s,4s)-4-fluorocyclohexyl)-5-(2-fluoropropan-2-yl)-[2,3′-bipyridine]-4′,6′-diamine] | 28.4 |  | 9.2 |  | 95.1 |  | 18.7 |  | 317 | 
CC(C)(F)c1ccc(-c2cnc(Nc3ccnc(-c4cnn(S(=O)(=O)C5CC5)c4)n3)cc2NC2CCC(F)CC2)nc1 (stereo not shown) [Example 239, N^6′-(2-(1-(Cyclopropylsulfonyl)-1H-pyrazol-4-yl)pyrimidin-4-yl)-N^4′-(4-fluorocyclohexyl)-5-(2-fluoropropan-2-yl)-[2,3′-bipyridine]-4′,6′-diamine] | 15.1 |  | 3.9 |  | 72.7 |  | 31.6 |  | 216 | 
CC(C)(F)c1ccc(-c2cnc(Nc3ccnc(-c4cnn(S(=O)(=O)C5CC5)c4)n3)cc2NC2CCC(F)(F)CC2)nc1 [Example 240, N^6′-(2-(1-(Cyclopropylsulfonyl)-1H-pyrazol-4-yl)pyrimidin-4-yl)-N^4′-(4,4-difluorocyclohexyl)-5-(2-fluoropropan-2-yl)-[2,3′-bipyridine]-4′,6′-diamine] | 19.8 |  | 5.9 |  | 134 |  | 15.4 |  | 733 | 
CC(F)(F)c1ccc(-c2cnc(Nc3ccnc(-c4cnn(S(=O)(=O)C5CC5)c4)n3)cc2N[C@H]2CC[C@@H](CO)CC2)nc1 [Example 241, ((1s,4s)-4-((6′-((2-(1-(Cyclopropylsulfonyl)-1H-pyrazol-4-yl)pyrimidin-4-yl)amino)-5-(1,1-difluoroethyl)-[2,3′-bipyridin]-4′-yl)amino)cyclohexyl)methanol] | 2.3 | 4.4 | 1.8 | 6.9 | 6.3 | 12.9 | 2.9 | 22 | 20.3 | 2640
CC(F)(F)c1ccc(-c2cnc(Nc3ccnc(-c4cnn(S(=O)(=O)C5CC5)c4)n3)cc2N[C@H]2CC[C@@H](C(C)(C)O)CC2)nc1 [Example 242, 2-((1s,4s)-4-((6′-((2-(1-(Cyclopropylsulfonyl)-1H-pyrazol-4-yl)pyrimidin-4-yl)amino)-5-(1,1-difluoroethyl)-[2,3′-bipyridin]-4′-yl)amino)cyclohexyl)propan-2-ol] | 4.8 | 9.7 | 2.5 | 11.3 | 15.2 | 18.7 | 10.7 | 179 | 53.5 | > 10000
O=S(=O)(C1CC1)n1cc(-c2nccc(Nc3cc(N[C@H]4CC[C@@H](CO)CC4)c(-c4ccc(C(F)(F)CO)cn4)cn3)n2)cn1 [Example 244, 2-(6′-((2-(1-(Cyclopropylsulfonyl)-1H-pyrazol-4-yl)pyrimidin-4-yl)amino)-4′-(((1s,4s)-4-(hydroxymethyl)cyclohexyl)amino)-[2,3′-bipyridin]-5-yl)-2,2-difluoroethan-1-ol] | 0.9 | 1.7 | 0.2 | 0.3 | 0.6 | 0.9 | 0.4 | 0.9 | 1.8 | 1420
O=S(=O)(C1CC1)n1cc(-c2nccc(Nc3cc(N[C@H]4CC[C@@H](CO)CC4)c(-c4cccc(CC(F)(F)F)n4)cn3)n2)cn1 [Example 246, ((1s,4s)-4-((6′-((2-(1-(Cyclopropylsulfonyl)-1H-pyrazol-4-yl)pyrimidin-4-yl)amino)-6-(2,2,2-trifluoroethyl)-[2,3′-bipyridin]-4′-yl)amino)cyclohexyl)methanol] | 3 | 7.2 | 0.4 | 1.1 | 6.9 | 21.1 | 12.4 | 45.2 | 42 | > 10000
CC(C)(O)[C@H]1CC[C@@H](Nc2cc(Nc3ccnc(-c4cnn(S(=O)(=O)C5CC5)c4)n3)ncc2-c2cccc(CC(F)(F)F)n2)CC1 [Example 247, 2-((1s,4s)-4-((6′-((2-(1-(Cyclopropylsulfonyl)-1H-pyrazol-4-yl)pyrimidin-4-yl)amino)-6-(2,2,2-trifluoroethyl)-[2,3′-bipyridin]-4′-yl)amino)cyclohexyl)propan-2-ol] |  | 14.7 |  | 2.6 |  | 80.6 |  | 51.1 | 111 | > 10000
CN(C)C[C@H]1CC[C@@H](Nc2cc(Nc3ccnc(-c4cnn(S(=O)(=O)C5CC5)c4)n3)ncc2-c2cccc(CC(F)(F)F)n2)CC1 [Example 248, N^6′-(2-(1-(Cyclopropylsulfonyl)-1H-pyrazol-4-yl)pyrimidin-4-yl)-N^4′-((1s,4s)-4-((dimethylamino)methyl)cyclohexyl)-6-(2,2,2-trifluoroethyl)-[2,3′-bipyridine]-4′,6′-diamine] | 0.4 | 0.4 | 0.1 | 0.3 | 2 | 5 | 1.8 | 9.7 | 4.6 | 7620
CC(C)Nc1cc(Nc2ccnc(-c3cnn(S(=O)(=O)C4CC4)c3)n2)ncc1-c1ccc(OC2CCN(C)CC2)cn1 [Example 249, N^6′-(2-(1-(Cyclopropylsulfonyl)-1H-pyrazol-4-yl)pyrimidin-4-yl)-N^4′-isopropyl-5-((1-methylpiperidin-4-yl)oxy)-[2,3′-bipyridine]-4′,6′-diamine] | 0.5 |  | 0.2 |  | 0.4 |  | 0.2 |  | 2.8 | 
CN1CCC(Oc2ccc(-c3cnc(Nc4ccnc(-c5cnn(S(=O)(=O)C6CC6)c5)n4)cc3N[C@H]3CC[C@@](C)(O)CC3)nc2)CC1 [Example 250, (1s,4s)-4-((6′-((2-(1-(Cyclopropylsulfonyl)-1H-pyrazol-4-yl)pyrimidin-4-yl)amino)-5-((1-methylpiperidin-4-yl)oxy)-[2,3′-bipyridin]-4′-yl)amino)-1-methylcyclohexan-1-ol] | 0.4 |  | 0.2 |  | 0.4 |  | 0.4 |  | 0.3 | 
